Measurements reported in patent publication US20240263128A1, “METHOD OF PRODUCING BIOLOGICAL MATERIAL” (NIPPON TELEGRAPH AND TELEPHONE CORPORATION, priority 2021, published 2024).

Legend:
[1] = test system: Cyanidiosyzon merolae; assay: Fat and oil accumulation in unicellular red algae (BODIPY staining, fluorescence microscopy); assay type: cell-based; settings: 2 mmol/L dimethyl 2-oxoglutarate, MA2 culture medium, suspension culture under light, 24 hours after addition, compared with culture without promoter; FIG. 2 vs FIG. 4
Protocol: Unicellular red algae were cultured in suspension under a light condition and a promoter was added thereto. An MA2 culture medium was used as a culture medium. Cyanidiosyzon merolae were used as unicellular red algae. Dimethyl 2-oxoglutarate was used as a promoter. The promoter was added so that the final concentration of dimethyl 2-oxoglutarate would be 2 mmol/L. After the addition of the promoter, the cultivation was continued for 24 hours more. Thereafter, a bright field image was obtained for the cultured unicellular red algae using a microscope. In addition, the fat and oil of the unicellular red algae were stained with commercially available BODIPY (registered trademark) from the Cosmo Bio, Inc. Then, a fluorescence observation image of the unicellular red algae with stained fat and oil was acquired by using a fluorescence microscope. In addition, cultivation was similarly conducted as described above except that no promoter was added. Then, acquisition of a bright field image, staining of fat and oil, and acquisition of a fluorescence observation image were carried out also for the cultured unicellular red algae.

[2] = test system: Cyanidiosyzon merolae; assay: Amount of starch in unicellular red algae after cultivation; assay type: cell-based; settings: 2 mmol/L dimethyl 2-oxoglutarate, MA2 culture medium, suspension culture under light, 24 hours after addition, compared with control without promoter; average of three independent tests, FIG. 5
Protocol: Unicellular red algae were cultured in suspension under a light condition and a promoter was added thereto. An MA2 culture medium was used as a culture medium. Cyanidiosyzon merolae were used as unicellular red algae. Dimethyl 2-oxoglutarate was used as a promoter. The promoter was added so that the final concentration of dimethyl 2-oxoglutarate would be 2 mmol/L. After the addition of the promoter, the cultivation was continued for 24 hours more. Thereafter, a bright field image was obtained for the cultured unicellular red algae using a microscope. In addition, the fat and oil of the unicellular red algae were stained with commercially available BODIPY (registered trademark) from the Cosmo Bio, Inc. Then, a fluorescence observation image of the unicellular red algae with stained fat and oil was acquired by using a fluorescence microscope. The same cultivation as in test 1 was performed, and the amount of starch contained in the unicellular red algae after the cultivation was determined. FIG. 5 is a graph showing an example of the influence of addition of a promoter on the amount of accumulation of starch. […] In FIG. 5, “control” represents the results obtained for the unicellular red algae cultured without adding a promoter to the culture medium. […]

**Q.** For COC(=O)CCC(=O)C(=O)OC [promoter, dimethyl 2-oxoglutarate], which “accumulation of fat and oil (fluorescence caused by BODIPY staining)” value [1] is on record?
**A.** greatly promoted

**Q.** And the “amount of accumulation of starch” value [2]?
**A.** greatly promoted
